Laboratory results taken from PMC5493200 (ACS infectious diseases, 2016).

Test system: drug resistant clinical M. tuberculosis isolates
Format: cell-based, Mycobacterium tuberculosis
Parameters: unit not given beside the values
Conditions: 29 clinical isolates, 18 MDR and 5 XDR

| Structure (SMILES) | MIC range |
| --- | --- |
| CN[C@@H]1[C@H](O)[C@H](NC)[C@H]2O[C@]3(O)[C@H](O[C@@H]2[C@H]1O)O[C@H](C)C[C@H]3NC(=O)Cc1ccc(O)cn1.Cl.Cl.Cl [Compound 39, 3′-Dihydro-3′-deoxy-3′(R)-(5-hydroxypyridin-2-yl)acetylamino spectinomycin trihydrochloride] | 1.56–3.13 |
| Br.Br.Br.CN[C@@H]1[C@H](O)[C@H](NC)[C@H]2O[C@]3(O)[C@H](O[C@@H]2[C@H]1O)O[C@H](C)C[C@H]3NC(=O)Cc1cc(Cl)c(F)cn1 [Compound 49, 3′-Dihydro-3′-deoxy-3′(R)-(4-chloro-5-fluoropyridin-2-yl)acetylamino spectinomycin trihydrobromide] | 0.39–1.56 |
